The values that follow come from patent US11529353B2, “Pharmaceutical composition comprising Palbociclib” (Synthon B.V., priority 2017, dated 2022).

A short description of series [1]: Particle size distribution by LASER diffraction (Malvern Mastersizer 2000). Type of series: physicochemical. The protocol:
The particle size distribution (PSD) is determined with LASER diffraction analyzer Malvern Mastersizer 2000 which operates in size ranges from 0.02 μm to 2,000 μm. The wet dispersion is prepared from dry powder sample and added to the dispersion unit. Gained raw data are computed by software to PSD with the use of Mie theory. This method is based on Ph. Eur. Method 2.9.31 and USP <429>.

The nature of series [2]: Specific surface area by BET-nitrogen adsorption analysis. The class given is physicochemical. The protocol: The specific surface area (SSA) is assessed with a Quantachrome NOVA touch 2LX. The N2 is used as measuring gas and BET method is used to evaluate SSA. The following setup has been used for the measurement: • Adsorbate: Nitrogen • Sample cell: 9 mm large bulb cell, long; Measurement is performed with the corresponding filler rod • Sample masses*: approximately ¾ of cell bulb • Degassing conditions: 960 min at 30° C. under vacuum (ramping 10° C./min) • Measured points of isotherm: 11 equidistant points in the range 0.05-0.30 p/p0** • Points analyzed using BET: 7equidistant points from whole range 0.05-0.20 p/p0 • Use data reduction adsorbate model: Yes (N2) • Bath thermal delay: at least 600 s • P0 Option: continuous (measured each 30 minutes) • Void volume mode: Helium measure • Equilibration time: 160 s • Equilibration timeout: 2400 s • Tolerance: 0.05 • * Used amount of sample depends on its SSA and other physical parameters. The real surface area of sample in measuring cell should be between 1 m^2/g and 20 m^2/g. • ** Points above or below this range can be measured.

For series [3] the following is noted: cited from earlier work.

Molecules are shown by their SMILES.

Turning to `CC(=O)c1c(C)c2cnc(Nc3ccc(N4CCNCC4)cn3)nc2n(C2CCCC2)c1=O` [Palbociclib], the D90 in series [1] is listed as 11.5 μm. Also, the surface area in series [2] is 6.9 m^2/g. The solubility entry in series [3] (above pH 4) was “reduces significantly”. In series [3] (at or below pH 4), the solubility in water entry is given as “high-solubility compound”.
